Measurements: ChEMBL document CHEMBL1201862, “PubChem BioAssay data set” (2004)
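Growth conditions: 96-well plates. Treatment: test compound, 48 hours, 5 concentrations. Analysis: linear interpolation between bracketing concentrations; unreached endpoints set to highest concentration. GI50 = concentration required for 50% inhibition of growth.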 Calls of active or inactive are those of the source. Rule as the data show it: active = GI50 up to about 1.1 µM and inactive = higher.

Experiments:
Assay in all cases: DTP human tumour cell line panel, 48 h
786-0 = system: 786-0
A498 = system: A498
A549 = system: A549
ACHN = system: ACHN
CAKI-1 = system: CAKI-1
CCRF-CEM = system: CCRF-CEM
COLO 205 = system: COLO 205
DLD-1 = system: DLD-1
DMS-114 = system: DMS-114
DMS-273 = system: DMS-273
EKVX = system: EKVX
HCC 2998 = system: HCC 2998
HCT-116 = system: HCT-116
HCT-15 = system: HCT-15
HL-60 = system: HL-60
HOP-18 = system: HOP-18
HOP-62 = system: HOP-62
HOP-92 = system: HOP-92
HT-29 = system: HT-29
IGROV-1 = system: IGROV-1
K562 = system: K562
KM-20L2 = system: KM-20L2
KM12 = system: KM12
LOX IMVI = system: LOX IMVI
LXFL 529 = system: LXFL 529
M14 = system: M14
M19-MEL = system: M19-MEL
MOLT-4 = system: MOLT-4
Malme-3M = system: Malme-3M
NCI-H226 = system: NCI-H226
NCI-H23 = system: NCI-H23
NCI-H460 = system: NCI-H460
NCI-H522 = system: NCI-H522
OVCAR-3 = system: OVCAR-3
OVCAR-4 = system: OVCAR-4
OVCAR-5 = system: OVCAR-5
OVCAR-8 = system: OVCAR-8
RPMI-8226 = system: RPMI-8226
RXF 393 = system: RXF 393
SF-268 = system: SF-268
SF-295 = system: SF-295
SF-539 = system: SF-539
SK-MEL-28 = system: SK-MEL-28
SK-MEL-2 = system: SK-MEL-2
SK-MEL-5 = system: SK-MEL-5
SK-OV-3 = system: SK-OV-3
SN12C = system: SN12C
SNB-19 = system: SNB-19
SNB-75 = system: SNB-75
SNB-78 = system: SNB-78
SR = system: SR
SW-620 = system: SW-620
TK-10 = system: TK-10
U-251 = system: U-251
UACC-257 = system: UACC-257
UACC-62 = system: UACC-62
UO-31 = system: UO-31

For COc1ccc2[nH]c3c4c(cc(-c5ccccc5)c3c2c1)C(=O)N(c1ccccc1)C4=O, the GI50 (786-0) was 4.9 µM (inactive), the GI50 (A498) was > 45.6 µM (inactive) and the GI50 (A549) was 13.8 µM (inactive). The GI50 (ACHN) was > 41.5 µM (inactive), the GI50 (CAKI-1) was 27 µM (inactive) and the GI50 (CCRF-CEM) was 4.97 µM (inactive). For the same compound, the GI50 (COLO 205) was 17.7 µM (inactive), the GI50 (DLD-1) was > 53 µM (inactive) and the GI50 (DMS-114) was > 47.8 µM (inactive). For the same compound, the GI50 (DMS-273) was 2.07 µM (inactive), the GI50 (EKVX) was 38.6 µM (inactive) and the GI50 (HCC 2998) was > 100 µM (inactive). For the same compound, the GI50 (HCT-116) was 29.2 µM (inactive), the GI50 (HCT-15) was 41.4 µM and the GI50 (HL-60) was 38.5 µM (inactive). The GI50 (HOP-18) was 24.7 µM (inactive), the GI50 (HOP-62) was 14.2 µM (inactive) and the GI50 (HOP-92) was 17.6 µM (inactive). The GI50 (HT-29) was 22.7 µM (inactive), the GI50 (IGROV-1) was 41.5 µM (inactive) and the GI50 (K562) was 22.1 µM (inactive). For the same compound, the GI50 (KM-20L2) was > 100 µM (inactive), the GI50 (KM12) was 33.3 µM (inactive) and the GI50 (LOX IMVI) was 16.1 µM (inactive). For the same compound, the GI50 (LXFL 529) was 18.1 µM (inactive), the GI50 (M14) was 19.3 µM (inactive) and the GI50 (M19-MEL) was 30.5 µM (inactive). The GI50 (MOLT-4) was 19.5 µM (inactive), the GI50 (Malme-3M) was 20.4 µM (inactive) and the GI50 (NCI-H226) was 25.1 µM (inactive). The GI50 (NCI-H23) was 31.9 µM (inactive), the GI50 (NCI-H460) was 9.73 µM (inactive) and the GI50 (NCI-H522) was 8.24 µM (inactive). For the same compound, the GI50 (OVCAR-3) was 17.9 µM (inactive), the GI50 (OVCAR-4) was 0.411 µM (active) and the GI50 (OVCAR-5) was > 100 µM (inactive). The GI50 (OVCAR-8) was 6.05 µM (inactive), the GI50 (RPMI-8226) was > 60 µM (inactive) and the GI50 (RXF 393) was 13 µM (inactive). The GI50 (SF-268) was 23.1 µM (inactive), the GI50 (SF-295) was 4.84 µM (inactive) and the GI50 (SF-539) was 2 µM (inactive). The GI50 (SK-MEL-28) was 37.9 µM (inactive), the GI50 (SK-MEL-2) was 21.3 µM (inactive) and the GI50 (SK-MEL-5) was 12.3 µM (inactive). For the same compound, the GI50 (SK-OV-3) was 26.3 µM (inactive), the GI50 (SN12C) was 21.5 µM (inactive) and the GI50 (SNB-19) was 23.6 µM (inactive). For the same compound, the GI50 (SNB-75) was 6.3 µM (inactive), the GI50 (SNB-78) was 27.2 µM (inactive) and the GI50 (SR) was 1.77 µM (inactive). The GI50 (SW-620) was 11.4 µM (inactive), the GI50 (TK-10) was 64.9 µM (inactive) and the GI50 (U-251) was 5.98 µM (inactive). The GI50 (UACC-257) was 35.3 µM (inactive), the GI50 (UACC-62) was 21.7 µM (inactive) and the GI50 (UO-31) was 28.5 µM (inactive).
